{
  "source": "patent US9211310B2",
  "about": "“Use of a Chinese medicine composition in preparing medicaments for treating secondary prevention of myocardial infarction” (TASLY PHARMACEUTICAL GROUP CO., LTD, priority 2010, dated 2015)",
  "tested_on": "patients after acute myocardial infarction",
  "test": "Life quality, Seattle Angina Questionnaire (SAQ), same clinical trial",
  "type": "in vivo, human",
  "details": "FAS; 6 months after treatment",
  "description": "3508 patients who were in accordance with the diagnostic standards of AMI for 28 days to 2 years and differentiated as Qi deficiency and blood stagnation syndrome by TCM were studied. 0.5 g Chinese medicine composition prepared by the method of EXAMPLE 1 (Coded as QSYQ) was administrated half an hour after meal, 3 times per day.\nThere were 19 questions in the Seattle angina questionnaire (SAQ), including 5 parts: physical limitation (PL), anginal stability (AS), anginal frequency (AF), treatment satisfaction (TS) and disease perception (DP). After being given necessary explanation by doctors, the questions were answered independently by patients.\nThey included the overall survival time, angina pectoris score, TCM symptom score and life quality score, where angina pectoris score, TCM symptom score and life quality score were evaluated at randomization, in 1st, 3rd, 6th, 9th, 12th month after treatment and 18th month after follow-up.\nAll evaluation results of SAQ were described during the period of observation, and Wilcoxon rank sum test was used for inter-group comparison.\nThe evaluation results in the SAQ were depicted in different observations, and inter-group comparison was tested by Wilcoxon Rank-sum test.",
  "data": [
    {"smiles": "CC(=O)Oc1ccccc1C(=O)O", "note": "[Control group, aspirine]", "values": [
      {"measurement": "SAQ 4th question, 1-3 times per day: number of patients", "value": 82},
      {"measurement": "SAQ 4th question, <1 time per week: % of patients", "value": "(11.98%)"},
      {"measurement": "SAQ 4th question, <1 time per week: number of patients", "value": 209},
      {"measurement": "SAQ 4th question, Not used: % of patients", "value": "(58.37%)"},
      {"measurement": "SAQ 4th question, Not used: number of patients", "value": 1018},
      {"measurement": "SAQ 4th question, ≧3 times per week: % of patients", "value": "(7.28%)"},
      {"measurement": "SAQ 4th question, ≧3 times per week: number of patients", "value": 127},
      {"measurement": "SAQ 4th question, ≧4 times per day: % of patients", "value": "(0.11%)"},
      {"measurement": "SAQ 4th question, ≧4 times per day: number of patients", "value": 2},
      {"measurement": "SAQ 5th question, 1-2 times per week: % of patients", "value": "(26.38%)"},
      {"measurement": "SAQ 5th question, 1-2 times per week: number of patients", "value": 460},
      {"measurement": "SAQ 5th question, 1-3 times per day: % of patients", "value": "(11.53%)"},
      {"measurement": "SAQ 5th question, 1-3 times per day: number of patients", "value": 201},
      {"measurement": "SAQ 5th question, <1 time per week: % of patients", "value": "(28.10%)"},
      {"measurement": "SAQ 5th question, <1 time per week: number of patients", "value": 490},
      {"measurement": "SAQ 5th question, No onset: % of patients", "value": "(4.30%)"},
      {"measurement": "SAQ 5th question, No onset: number of patients", "value": 75},
      {"measurement": "SAQ 5th question, ≧3 times per week: % of patients", "value": "(28.84%)"},
      {"measurement": "SAQ 5th question, ≧3 times per week: number of patients", "value": 503},
      {"measurement": "SAQ 5th question, ≧4 times per day: % of patients", "value": "(0.86%)"},
      {"measurement": "SAQ 5th question, ≧4 times per day: number of patients", "value": 15},
      {"measurement": "SAQ 6th question, Dissatisfied: % of patients", "value": "(0.17%)"},
      {"measurement": "SAQ 6th question, Dissatisfied: number of patients", "value": 3},
      {"measurement": "SAQ 6th question, Highly satisfied: % of patients", "value": "(21.62%)"},
      {"measurement": "SAQ 6th question, Highly satisfied: number of patients", "value": 377},
      {"measurement": "SAQ 6th question, Mostly dissatisfied: % of patients", "value": "(1.95%)"},
      {"measurement": "SAQ 6th question, Mostly dissatisfied: number of patients", "value": 34},
      {"measurement": "SAQ 6th question, Mostly satisfied: % of patients", "value": "(55.73%)"},
      {"measurement": "SAQ 6th question, Mostly satisfied: number of patients", "value": 972},
      {"measurement": "SAQ 6th question, Partly satisfied: % of patients", "value": "(20.53%)"},
      {"measurement": "SAQ 6th question, Partly satisfied: number of patients", "value": 358},
      {"measurement": "SAQ 7th question, Dissatisfied: % of patients", "value": "(0.11%)"},
      {"measurement": "SAQ 7th question, Dissatisfied: number of patients", "value": 2},
      {"measurement": "SAQ 7th question, Highly satisfied: % of patients", "value": "(25.03%)"},
      {"measurement": "SAQ 7th question, Highly satisfied: number of patients", "value": 436},
      {"measurement": "SAQ 7th question, Mostly dissatisfied: % of patients", "value": "(1.32%)"},
      {"measurement": "SAQ 7th question, Mostly dissatisfied: number of patients", "value": 23},
      {"measurement": "SAQ 7th question, Mostly satisfied: % of patients", "value": "(58.21%)"},
      {"measurement": "SAQ 7th question, Mostly satisfied: number of patients", "value": 1014},
      {"measurement": "SAQ 7th question, Partly satisfied: % of patients", "value": "(15.33%)"},
      {"measurement": "SAQ 7th question, Partly satisfied: number of patients", "value": 267},
      {"measurement": "SAQ Question 1-1 Mildly limited, number of patients", "value": 29},
      {"measurement": "SAQ Question 1-1 Mildly limited, percent of patients", "value": "(1.66%)"},
      {"measurement": "SAQ Question 1-1 Moderately limited, number of patients", "value": 4},
      {"measurement": "SAQ Question 1-1 Moderately limited, percent of patients", "value": "(0.23%)"},
      {"measurement": "SAQ Question 1-1 Not limited, number of patients", "value": 1638},
      {"measurement": "SAQ Question 1-1 Not limited, percent of patients", "value": "(93.92%)"},
      {"measurement": "SAQ Question 1-1 Other reasons, number of patients", "value": 3},
      {"measurement": "SAQ Question 1-1 Other reasons, percent of patients", "value": "(0.17%)"},
      {"measurement": "SAQ Question 1-1 Severely limited, number of patients", "value": 1},
      {"measurement": "SAQ Question 1-1 Severely limited, percent of patients", "value": "(0.06%)"},
      {"measurement": "SAQ Question 1-1 Slightly limited, number of patients", "value": 69},
      {"measurement": "SAQ Question 1-1 Slightly limited, percent of patients", "value": "(3.96%)"},
      {"measurement": "SAQ Question 1-2 Mildly limited, number of patients", "value": 27},
      {"measurement": "SAQ Question 1-2 Mildly limited, percent of patients", "value": "(1.55%)"},
      {"measurement": "SAQ Question 1-2 Moderately limited, number of patients", "value": 8},
      {"measurement": "SAQ Question 1-2 Moderately limited, percent of patients", "value": "(0.46%)"},
      {"measurement": "SAQ Question 1-2 Not limited, number of patients", "value": 1615},
      {"measurement": "SAQ Question 1-2 Not limited, percent of patients", "value": "(92.60%)"},
      {"measurement": "SAQ Question 1-2 Other reasons, number of patients", "value": 6},
      {"measurement": "SAQ Question 1-2 Other reasons, percent of patients", "value": "(0.34%)"},
      {"measurement": "SAQ Question 1-2 Severely limited, number of patients", "value": 1},
      {"measurement": "SAQ Question 1-2 Severely limited, percent of patients", "value": "(0.06%)"},
      {"measurement": "SAQ Question 1-2 Slightly limited, number of patients", "value": 87},
      {"measurement": "SAQ Question 1-2 Slightly limited, percent of patients", "value": "(4.99%)"},
      {"measurement": "SAQ Question 1-6: Mildly limited, patients (%)", "value": "(16.49%)"},
      {"measurement": "SAQ Question 1-6: Moderately limited, patients (%)", "value": "(11.78%)"},
      {"measurement": "SAQ Question 1-6: Not limited, patients (%)", "value": "(34.20%)"},
      {"measurement": "SAQ Question 1-6: Other reasons, patients (%)", "value": "(0.98%)"},
      {"measurement": "SAQ Question 1-6: Severely limited, patients (%)", "value": "(3.85%)"},
      {"measurement": "SAQ Question 1-6: Slightly limited, patients (%)", "value": "(32.70%)"},
      {"measurement": "SAQ Question 1-7: Mildly limited, patients (%)", "value": "(21.23%)"},
      {"measurement": "SAQ Question 1-7: Moderately limited, patients (%)", "value": "(13.48%)"},
      {"measurement": "SAQ Question 1-7: Not limited, patients (%)", "value": "(14.52%)"},
      {"measurement": "SAQ Question 1-7: Other reasons, patients (%)", "value": "(3.53%)"},
      {"measurement": "SAQ Question 1-7: Severely limited, patients (%)", "value": "(15.33%)"},
      {"measurement": "SAQ Question 1-7: Slightly limited, patients (%)", "value": "(31.93%)"}
    ]}
  ]
}
